Drawing on patent US12060349B2, “Glucosylceramide synthase inhibitors” (Genzyme Corporation, priority 2012, dated 2024), this text covers IC50 for 18 compounds.

The term IC50 denotes the concentration needed to halve the response being measured.

Where two headings read alike, the source gives them in different places. Some results are limits rather than exact numbers.

For one assay, the system named is C32 human melanoma cells. The assay is described as follows: cell viability in the C32 cell-based assay (Viability, C32 IC50). To be noted: concentration causing 50% cell death, values greater than 10 represent a lack of cell death. A digest of the protocol:
(§1)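 Two melanoma lines, mouse B16 and human C32, were treated and surface GM3 quantified by antibody immunofluorescence for IC50. A parallel viability readout gives the concentration killing 50% of cells, with values over 10 indicating no cell death.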

In assay [1] the target is T1, glucosylceramide synthase (Homo sapiens, UniProt Q16739).
T1 construct: Microsomes were isolated from A375 human melanoma cells; endogenous in cells; host or cells: A375 human melanoma cells (microsomal fraction, 100,000 g pellet)
T1 sequence (Q16739 1-394): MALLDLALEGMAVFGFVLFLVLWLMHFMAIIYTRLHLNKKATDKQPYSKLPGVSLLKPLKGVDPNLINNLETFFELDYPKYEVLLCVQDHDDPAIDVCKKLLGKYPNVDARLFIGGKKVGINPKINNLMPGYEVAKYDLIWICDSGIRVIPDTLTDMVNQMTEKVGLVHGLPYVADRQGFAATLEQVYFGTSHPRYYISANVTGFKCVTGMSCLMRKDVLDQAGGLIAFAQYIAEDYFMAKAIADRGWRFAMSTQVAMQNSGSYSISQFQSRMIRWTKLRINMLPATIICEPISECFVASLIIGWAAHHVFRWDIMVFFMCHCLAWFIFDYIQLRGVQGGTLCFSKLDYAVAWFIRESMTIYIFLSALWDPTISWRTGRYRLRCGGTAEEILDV
The assay is described as follows: microsomal assay measuring conversion of ceramide to glucosylceramide by HPLC (GCS IC50). The assay is classed as biochemical. To be noted: concentration causing 50% inhibition of glucosylceramide synthase activity. A digest of the protocol:
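Microsomal preparation assayed for glucosylceramide synthase by direct HPLC measurement of ceramide conversion to glucosylceramide. GCS IC50 is the compound concentration giving 50% inhibition of enzyme activity.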

The subject of assay [2] is GM3 expression on the cell surface, B16 mouse melanoma cells. The assay is described as follows: cell based phenotypic assay, cell surface GM3 by antibody mediated immunofluorescence, B16 (GM3 B16 IC50). The note with it: Mus musculus, 50% inhibition of GM3 expression on the cell surface. A digest of the protocol:
(§2)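 Both lines undergo the phenotypic GM3 assay, and viability is recorded from that same cell-based run.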

Assay [3] has as its system GM3 expression on the cell surface, C32 human melanoma cells. Put plainly: cell based phenotypic assay, cell surface GM3 by antibody mediated immunofluorescence, C32 (GM3 C32 IC50). The note with it: Homo sapiens, 50% inhibition of GM3 expression on the cell surface. In short, it runs like this: as §2
A further assay deals with B16 mouse melanoma cells. The assay is described as follows: cell viability in the B16 cell-based assay (Viability, B16 IC50). A digest of the protocol: as §1
The mark [4] stands for this setting: Homo sapiens, C32, C32 cells, read-out: Viability, C32 IC50.
[5] abbreviates: B16 mouse melanoma cells, read-out: GM3 B16 IC50.
Where [6] appears, read: C32 human melanoma cells, read-out: GM3 C32 IC50.
Setting [7] is: Mus musculus, B16, B16 cells, concentration causing 50% cell death, values greater than 10 represent a lack of cell death, read-out: Viability, B16 IC50.
Where [8] appears, read: read-out: Viability, C32 IC50, C32 cells.
Setting [9] is: read-out: GM3 B16 IC50, B16 mouse melanoma cells.
Setting [10] is: read-out: GM3 C32 IC50, C32 human melanoma cells.
Setting [11] is: read-out: Viability, B16 IC50, B16 cells, concentration causing 50% cell death, values greater than 10 represent a lack of cell death.

For the compound `CCOc1ccc(-c2cccc(C(C)(C)NC(=O)OC3CCN4CCC3CC4)c2)nn1` (stereo not drawn) [Example 319, 1-Azabicyclo[3.2.2]nonan-4-yl (2-(3-(6-ethoxypyridazin-3-yl)phenyl)propan-2-yl)carbamate], the IC50 with C32 human melanoma cells (setting [4]) was ≥ 10000 nM; in assay [1], 75 nM; in assay [2] (setting [5]), 121 nM; in assay [3] (setting [6]), 8.04 nM; with B16 mouse melanoma cells (setting [7]), ≥ 10000 nM.
For `CCC1(NC(=O)NC(C)(C)c2ccc(-c3ccc(OCCOC)cc3)cc2)CN2CCC1CC2` (stereo not drawn) [Example 159, 1-(3-Ethylquinuclidin-3-yl)-3-(2-(4′-(2-methoxyethoxy)-[1,1′-biphenyl]-4-yl)propan-2-yl)urea], the IC50 turned out to be 1000 nM in the assay with C32 human melanoma cells (setting [4]); 5.6 nM in assay [1]; 4.46 nM in assay [2] (setting [5]); 0.636 nM in assay [3] (setting [6]); 1000 nM in the assay with B16 mouse melanoma cells (setting [7]).
Turning to `CNC(=O)c1ccc(-c2ccc(C(C)(C)NC(=O)NC3(C)CCN4CCC3CC4)cc2)cc1` (stereo not drawn) [Example 255, N-Methyl-4′-(2-(3-(4-methyl-1-aza-bicyclo[3.2.2]nonan-4-yl)ureido)propan-2-yl)biphenyl-4-carboxamide], the IC50 in the assay on C32 human melanoma cells (setting [4]) was 1000 nM; in assay [1] it was 46.9 nM; in assay [2] (setting [5]), 3420 nM; in assay [3] (setting [6]), 20.1 nM; in the assay with B16 mouse melanoma cells (setting [7]), 6790 nM.
For `COCCCOc1cnc(-c2cccc(C(C)(C)NC(=O)OC3CCN4CCC3CC4)c2)nc1` (stereo not drawn) [Example 324, 1-Azabicyclo[3.2.2]nonan-4-yl (2-(3-(5-(3-methoxypropoxy)pyrimidin-2-yl)phenyl)propan-2-yl)carbamate], in that order: 1000 nM, 96.9 nM, 157 nM, 8.49 nM and ≥ 10000 nM.
With `CC1CN(c2cccc(-c3ccccc3)c2)CCN1C(=O)NC1(C)CCN2CCC1CC2` (stereo not drawn) [Example 30, 4-([1,1′-Biphenyl]-3-yl)-2-methyl-N-(4-methyl-1-azabicyclo[3.2.2]nonan-4-yl)piperazine-1-carboxamide], the IC50 in the assay with C32 human melanoma cells (setting [4]) stood at 1000 nM; in assay [1], 376 nM; in assay [2] (setting [5]) it was 864 nM; in assay [3] (setting [6]) it was 63.9 nM; in the assay on B16 mouse melanoma cells (setting [7]), 7640 nM.
For `CC(C)(NC(=O)OC1CCN2CCC1CC2)c1ccc(-c2ccc(OCCCn3ccnn3)cc2)cc1` (stereo not drawn) [Example 187, 1-Azabicyclo[3.2.2]nonan-4-yl (2-(4′-(3-(1H-1,2,3-triazol-1-yl)propoxy)-[1,1′-biphenyl]-4-yl)propan-2-yl)carbamate], in that order: 1000 nM, 20.2 nM, 106 nM, 7.74 nM and ≥ 10000 nM.
On the same counts, the results for `CCCC1(NC(=O)NC(C)(C)C#Cc2ccc(CCOC)cc2)CN2CCC1CC2` (stereo not drawn) [Example 326, 1-(4-(4-(2-Methoxyethyl)phenyl)-2-methylbut-3-yn-2-yl)-3-(3-propylquinuclidin-3-yl)urea] are 3160 nM, 26.6 nM, 123 nM, 4.29 nM and 3160 nM.
In the case of `CCC1(NC(=O)NC(C)(C)c2ccc(-c3ccc(C(=O)N4CCC(F)(F)CC4)cc3)cc2)CN2CCC1CC2` (stereo not drawn) [Example 272, 1-(2-(4′-(4,4-Difluoropiperidine-1-carbonyl)biphenyl-4-yl)propan-2-yl)-3-(3-ethylquinuclidin-3-yl)urea], the IC50 in the assay on C32 human melanoma cells (setting [4]) was 1000 nM; in assay [1] it was 16.4 nM; in assay [2] (setting [5]), 24.9 nM; in assay [3] (setting [6]), 2.15 nM; in the assay with B16 mouse melanoma cells (setting [7]) it was ≥ 10000 nM.
Take `COCCOc1ccc(C#CC(C)(C)NC(=O)OC2CN3CCC2CC3)cc1` (stereo not drawn) [Example 329, Quinuclidin-3-yl (4-(4-(2-methoxyethoxy)phenyl)-2-methylbut-3-yn-2-yl)carbamate]: the IC50 with C32 human melanoma cells (setting [8]) is ≥ 10000 nM; in assay [1] it was 3140 nM; in assay [2] (setting [9]) it was 2700 nM; in assay [3] (setting [10]), 284 nM; with B16 mouse melanoma cells (setting [11]) it was ≥ 10000 nM.
For `COCCOc1ccc(-c2cccc(C(C)(C)NC(=O)OC3CCN4CCC3CC4)c2)cc1` (stereo not drawn) [Example 171, 1-Azabicyclo[3.2.2]nonan-4-yl (2-(4′-(2-methoxyethoxy)-[1,1′-biphenyl]-3-yl)propan-2-yl)carbamate], the IC50 with C32 human melanoma cells (setting [4]) is 3980 nM; in assay [1], 32.5 nM; in assay [2] (setting [5]) it was 11.9 nM; in assay [3] (setting [6]), 1.45 nM; in the assay on B16 mouse melanoma cells (setting [7]), 74.6 nM.
For the compound `CCC1(NC(=O)NC(C)(C)c2ccc(-c3ccc(N4CCOCC4)cc3)cc2)CN2CCC1CC2` (stereo not drawn) [Example 234, 1-(3-Ethylquinuclidin-3-yl)-3-(2-(4′-morpholino-[1,1′-biphenyl]-4-yl)propan-2-yl)urea], the IC50 in the assay with C32 human melanoma cells (setting [4]) is 1000 nM; in assay [1], 14.6 nM; in assay [2] (setting [5]) it was 32.6 nM; in assay [3] (setting [6]), 1.81 nM; in the assay with B16 mouse melanoma cells (setting [7]), 1000 nM.
Regarding `CC1(NC(=O)C2CCN(c3ncc(Oc4ccc(F)cc4)cn3)CC2)CCN2CCC1CC2` (stereo not drawn) [Example 130, 1-(5-(4-Fluorophenoxy)pyrimidin-2-yl)-N-(4-methyl-1-azabicyclo[3.2.2]nonan-4-yl)piperidine-4-carboxamide], the IC50 came to 316 nM with C32 human melanoma cells (setting [4]); 0.889 nM in assay [1]; 16.9 nM in assay [2] (setting [5]); 0.156 nM in assay [3] (setting [6]); 5670 nM with B16 mouse melanoma cells (setting [7]).
Consider `CC1(COc2ccc(-c3ccc(C(C)(C)NC(=O)OC4CN5CCC4CC5)cc3)cc2)COC1` (stereo not drawn) [Example 191, Quinuclidin-3-yl (2-(4′-((3-methyloxetan-3-yl)methoxy)-[1,1′-biphenyl]-4-yl)propan-2-yl)carbamate], for which the IC50 came to 1000 nM in the assay on C32 human melanoma cells (Homo sapiens, C32, read-out: Viability, C32 IC50, C32 cells); 7.2 nM in assay [1]; 71.8 nM in assay [2] (setting [9]); 3.24 nM in assay [3] (setting [10]); 5250 nM with B16 mouse melanoma cells (Mus musculus, B16, read-out: Viability, B16 IC50).
As for `COCCCOc1ccc(-c2nc(N3CCC(C(=O)NC4(C)CCN5CCC4CC5)CC3)ncc2F)cc1` (stereo not drawn) [Example 62, 1-(5-Fluoro-4-(4-(3-methoxypropoxy)phenyl)pyrimidin-2-yl)-N-(4-methyl-1-azabicyclo[3.2.2]nonan-4-yl)piperidine-4-carboxamide], the IC50 in the assay on C32 human melanoma cells (setting [4]) is 100 nM; in assay [1], 0.931 nM; in assay [2] (setting [5]), 10.5 nM; in assay [3] (setting [6]) it was 0.109 nM; in the assay on B16 mouse melanoma cells (setting [7]) it was 2390 nM.
With `COCCCOc1cnc(-c2cccc(C(C)(C)NC(=O)OC3CCN4CCC3CC4)c2)cn1` (stereo not drawn) [Example 316, 1-Azabicyclo[3.2.2]nonan-4-yl (2-(3-(5-(3-methoxypropoxy)pyrazin-2-yl)phenyl)propan-2-yl)carbamate], the IC50 was ≥ 10000 nM with C32 human melanoma cells (setting [4]); 28 nM in assay [1]; 152 nM in assay [2] (setting [5]); 4.39 nM in assay [3] (setting [6]); ≥ 10000 nM in the assay on B16 mouse melanoma cells (setting [7]).
Regarding `COCCCOc1ccc(-c2ccc(C(C)(C)NC(=O)N3CCN4CCC3CC4)cc2)cc1` [Example 174, N-(2-(4′-(3-Methoxypropoxy)-[1,1′-biphenyl]-4-yl)propan-2-yl)-1,4-diazabicyclo[3.2.2]nonane-4-carboxamide], the IC50 in the assay with C32 human melanoma cells (setting [4]) was 1000 nM; in assay [1], 134 nM; in assay [2] (setting [5]), 386 nM; in assay [3] (setting [6]), 22.5 nM; with B16 mouse melanoma cells (setting [7]) it was ≥ 10000 nM.
On to `CC1(NC(=O)C2(F)CCN(c3cnc(Oc4ccc(F)cc4)cn3)CC2)CN2CCC1CC2` (stereo not drawn) [Example 133, 4-Fluoro-1-(5-(4-fluorophenoxy)pyrazin-2-yl)-N-(3-methylquinuclidin-3-yl)piperidine-4-carboxamide], for which the IC50 is 1000 nM in the assay on C32 human melanoma cells (setting [4]); 45.9 nM in assay [1]; 467 nM in assay [2] (setting [5]); 4.83 nM in assay [3] (setting [6]); ≥ 10000 nM with B16 mouse melanoma cells (setting [7]).
For the compound `O=C(OC1CN2CCC1CC2)N1CCN(c2cccc(-c3ccccc3)c2)CC1` (stereo not drawn) [Example 18, Quinuclidin-3-yl 4-([1,1′-biphenyl]-3-yl)piperazine-1-carboxylate], the IC50 in the assay with C32 human melanoma cells (setting [8]) was ≥ 10000 nM; in assay [1] it was 551 nM; in assay [2] (setting [9]) it was 2040 nM; in assay [3] (setting [10]), 563 nM; with B16 mouse melanoma cells (setting [11]), 8360 nM.
